Experimental data from EP0032048A1, “Pyrroloylpyrrole derivatives, processes for their preparation and their use” (BEECHAM GROUP PLC, priority 1980, dated 1981).

Assays:
Assay type in all cases: in vivo
[1] = system: phenylquinone induced mouse writhing; experiment: phenylquinone induced mouse writhing test; conditions: po; for inhibition at 16 mg/kg: 16 mg/kg per os
Text: In a conventional phenylquinone induced mouse writhing test, compound 1, 3 and 4 were active at the following dose per os.

[2] = system: carageenin induced oedema; experiment: carrageenin induced oedema test in the rat; conditions: for inhibitions (carrageenin oedema) versus controls: dose not given
Text: In a conventional carageenin induced oedema test in the rat, the results were as follows: […]

[3] = system: cotton pellet induced granuloma; experiment: cotton pellet induced granuloma test
Text: In a convention cotton pellet induced granuloma test, the results were as follows: I

Cn1cccc1C(=O)c1ccc(CC(=O)O)n1C [Compound 1, 2-Carboxymethyl-1-methyl-5-(1'-methyl-2'-pyrroloyl)pyrrrole]
inhibition at 16 mg/kg [1]: 90%
inhibition at 20 mg/kg ([2]; dose 20 mg/kg, * 0.05>p>0.02): 19%
Mean Oedema ([2]; dose 20 mg/kg, control 145.3 + 10.3): 117.7 + 6.6
inhibition at 10 mg/kg ([3]; dose 10 mg/kg, * 0.05>p>0.02): 22%
Granuloma Wt. ([3]; dose 10 mg/kg, control 48.1): 37.6 mg

Cc1cc(CCC(C)O)n(C)c1C(=O)c1cccn1C (stereo not drawn) [Compound 6, 4-(1',4-Dimethyl-5'-(1"-methyl-2"-pyrroloyl)-2'-pyrryl) butan-2-ol]
inhibitions (carrageenin oedema) versus controls [2]: significantly different from controls

CC(=O)CCc1cc(C)c(C(=O)c2cccn2C)n1C [Compound 5, 4-(1',4'-Dimethyl-5'-(1"-methyl-2"-pyrroloyl)-2'-pyrryl) butan-2-one]
inhibitions (carrageenin oedema) versus controls [2]: significantly different from controls

Cc1cc(CC(=O)O)n(C)c1C(=O)c1cccn1C [Compound 3, 2-Carboxymethyl-1,4-dimethyl-5-(1'-methyl-2'-pyrroloyl) pyrrole]
inhibition at 16 mg/kg [1]: 100%
ED50 ([1]; separate test): 2.8 mg/kg
inhibition at 12.5 mg/kg ([2]; dose 12.5 mg/kg, ** 0.01>p>0.001): 33%
Mean Oedema ([2]; dose 12.5 mg/kg, control 106.0 + 6.01): 70.62 + 6.31
inhibition at 5 mg/kg ([3]; dose 5 mg/kg, ** 0.01>p>0.001): 26%
Granuloma Wt. ([3]; dose 5 mg/kg, control 35.2): 26.1 mg

Cc1cc(CCC(=O)O)n(C)c1C(=O)c1cccn1C [Compound 4, 2-(2'-Carboxyethyl)-1,4-dimethyl-5-(1"-methyl-2" pyrroloyl) pyrrole]
inhibition at 16 mg/kg [1]: 60%

CC(=O)OC(C)CCc1cc(C)c(C(=O)c2cccn2C)n1C (stereo not drawn) [Compound 7, 2-Acetoxy-4-(1',4'-Dimethvl-5'-(1"-methyl-2"-pvrroloyl)-2'-pyrryl)butane]
inhibitions (carrageenin oedema) versus controls [2]: significantly different from controls
